Experimental findings from ChEMBL document CHEMBL1201862, “PubChem BioAssay data set” (2004) are described below.

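Results reflect a 48-hour exposure of cells in 96-well plates to compound at five concentrations. The concentration for 50% growth inhibition is given as GI50.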 Activity calls are given as the source filed them. No stated cut-off is given here; in the data, active = GI50 up to about 1.1 µM and inactive = higher.

What all share (test): NCI tumour cell line growth inhibition, 48 h
Experiment [1] has as its system SK-MEL-5.
For experiment [2], the system named is M14.
Experiment [3] concerns ACHN.
Experiment [4] deals with MDA-MB-231.
The test system of experiment [5] is HCT-116.
In experiment [6] the test system is MDA-MB-435.
For experiment [7], the system named is SF-268.
The subject of experiment [8] is HOP-62.
Experiment [9] concerns T47D.
The subject of experiment [10] is OVCAR-8.
In experiment [11] the test system is IGROV-1.
The subject of experiment [12] is HL-60.
Experiment [13] has as its system U-251.
Experiment [14] deals with NCI/ADR-RES.
Experiment [15] concerns NCI-H23.
Experiment [16] concerns HCT-15.
Experiment [17] has as its system HCC 2998.
Experiment [18] concerns OVCAR-4.
The test system of experiment [19] is SNB-75.
Experiment [20] concerns SR.

`COc1ccc(/C=C2\CCC(C)c3c2nc(N)c(C#N)c3-c2ccc(OC)c(OC)c2)cc1OC` (stereo not drawn): the GI50 in experiment [1] was 4.84 µM (inactive); in [2], 32.3 µM (inactive); in experiment [3] it was 15.7 µM (inactive); in [4], 9.89 µM (inactive); in [5] it was 8.81 µM (inactive); in [6], 10.8 µM (inactive). Besides, the GI50 was 52.7 µM (inactive) in [7]; 2.05 µM (inactive) in [8]; 1.13 µM (inactive) in experiment [9]; 9.82 µM (inactive) in experiment [10]; 15.1 µM (inactive) in [11]; 5.08 µM (inactive) in experiment [12]. The GI50 in experiment [13] was 9.44 µM (inactive); in [14], 6.73 µM (inactive); in [15], 5.6 µM (inactive); in [16], 5.71 µM.
For `CC(=O)OCC(OC(C)=O)C(OC(C)=O)C(OC(C)=O)C(C=NN(C(C)=O)S(=O)(=O)c1ccc(/C=C2\NC(=O)NC2=O)cc1)OC(C)=O` (stereo not drawn), the GI50 in experiment [1], in [2], in experiment [3], in [4], in [5] and in experiment [6] was > 100 µM (inactive) each time. In addition, the GI50 in experiment [7], in [8], in experiment [9], in experiment [17], in experiment [10] and in experiment [11] was > 100 µM (inactive) each time. Moreover, the GI50 in [18] was > 100 µM (inactive); in experiment [13] it was > 100 µM (inactive); in experiment [14], > 100 µM (inactive); in experiment [15] it was > 100 µM (inactive); in experiment [16], more than 100 µM; in experiment [19] it was > 100 µM (inactive).
Take `COC(=O)/C(=N\NC(=S)NN)C(C(=O)OC)C(=O)C(=O)Nc1cccc(C(F)(F)F)c1` (stereo not drawn): the GI50 in experiment [1], in experiment [2], in experiment [3], in experiment [4], in experiment [5] and in experiment [6] was > 100 µM (inactive) throughout. The GI50 in experiment [7], in [8], in experiment [9], in experiment [17], in [10] and in experiment [11] was > 100 µM (inactive) in each case. The GI50 in experiment [18] is > 100 µM (inactive); in experiment [12], > 100 µM (inactive); in experiment [13], > 100 µM (inactive); in [14] it was > 100 µM (inactive); in [15], > 100 µM (inactive); in [16], more than 100 µM. In addition, the GI50 in experiment [19] was > 100 µM (inactive).
As to `N#Cc1c2c([nH]c(=O)c1C#N)CCCC2`, the GI50 in experiment [1], in experiment [2], in experiment [3], in experiment [4], in experiment [5] and in [6] was > 100 µM (inactive) in each case. Besides, the GI50 in [7], in [9], in experiment [17], in experiment [10], in experiment [11] and in experiment [12] was > 100 µM (inactive) throughout. Also, the GI50 in [13] was > 100 µM (inactive); in [14] it was > 100 µM (inactive); in [15], > 100 µM (inactive); in experiment [16], more than 100 µM; in [19] it was 82.8 µM (inactive).
For the molecule `C/C(CC(O)(C(F)(F)F)C(F)(F)F)=N\N`, the GI50 in experiment [1], in experiment [2], in experiment [3], in experiment [4], in experiment [5] and in experiment [6] was > 10 µM (inactive) each time. Besides, the GI50 in [7], in experiment [8], in experiment [9], in experiment [17], in [10] and in [11] was > 10 µM (inactive) throughout. The GI50 is > 10 µM (inactive) in experiment [18]; > 10 µM (inactive) in [12]; > 10 µM (inactive) in [13]; > 10 µM (inactive) in [14]; > 10 µM (inactive) in experiment [15]; more than 10 µM in experiment [16]. For the same molecule, the GI50 in experiment [19] is > 10 µM (inactive).
For the molecule `Cc1ccc2c(c1)-c1nc(N)c(C#N)c(-c3ccccc3)c1CCS2(=O)=O`, the GI50 in experiment [1] was > 100 µM (inactive); in experiment [2], > 100 µM (inactive); in experiment [3], 38.5 µM (inactive); in [4], 37 µM (inactive); in experiment [5], > 100 µM (inactive); in experiment [6], > 100 µM (inactive). Besides, the GI50 was 46.5 µM (inactive) in experiment [7]; 30.5 µM (inactive) in experiment [8]; > 100 µM (inactive) in experiment [9]; > 100 µM (inactive) in experiment [17]; 23.1 µM (inactive) in [10]; 31.3 µM (inactive) in experiment [11]. Besides, the GI50 is 16.7 µM (inactive) in [18]; 32.5 µM (inactive) in experiment [13]; 38.5 µM (inactive) in experiment [14]; 87.9 µM (inactive) in experiment [15]; 44.1 µM in [16]; 24.4 µM (inactive) in experiment [19].
On to `O=[N+]([O-])c1ccc2c(c1)nc(Cc1ccccc1)n2C[C@@H]1CCCN2CCCCC12` (stereo partly drawn), for which the GI50 in experiment [1] was 16.5 µM (inactive); in [2], 18.2 µM (inactive); in [3] it was 57.8 µM (inactive); in experiment [4], 31.3 µM (inactive); in experiment [5], 33.7 µM (inactive); in experiment [6], 17.2 µM (inactive). In addition, the GI50 in experiment [7] is 45.8 µM (inactive); in experiment [8], > 100 µM (inactive); in experiment [9], 39.4 µM (inactive); in experiment [17], 12.9 µM (inactive); in experiment [10] it was 34.9 µM (inactive); in [11], 25.8 µM (inactive). In addition, the GI50 is 27.4 µM (inactive) in [18]; < 0.01 µM (active) in [12]; 44.7 µM (inactive) in [13]; 22.9 µM (inactive) in experiment [14]; 27.5 µM (inactive) in experiment [15]; 36.9 µM in experiment [16]. For the same molecule, in experiment [19], the GI50 is 63.5 µM (inactive).
With `[N-]=[N+]=Nc1cc(=O)[nH]c2ccccc12`, the GI50 in experiment [1], in experiment [2], in [3], in [4], in experiment [5] and in experiment [6] was > 100 µM (inactive) each time. For the same molecule, the GI50 in experiment [7] was > 100 µM (inactive); in experiment [8] it was > 100 µM (inactive); in experiment [9], 64.9 µM (inactive); in experiment [10], > 100 µM (inactive); in [11], 31.9 µM (inactive); in experiment [18], > 100 µM (inactive). The GI50 is > 100 µM (inactive) in experiment [13]; > 100 µM (inactive) in experiment [14]; 41.3 µM (inactive) in experiment [20]; > 100 µM (inactive) in experiment [15]; 32.3 µM (inactive) in experiment [19].
Turning to `CCOC(=O)CCCn1nnc(C(=O)OCC)c1C(=O)OCC`, the GI50 in experiment [1], in experiment [3], in experiment [4], in [5], in experiment [6] and in experiment [7] was > 100 µM (inactive) each time. The GI50 in experiment [8], in [9], in experiment [17], in experiment [10], in [11] and in experiment [18] was > 100 µM (inactive) each time. Further, the GI50 was > 100 µM (inactive) in [13]; > 100 µM (inactive) in experiment [14]; > 100 µM (inactive) in experiment [20]; > 100 µM (inactive) in experiment [15]; more than 100 µM in [16]; > 100 µM (inactive) in [19].
In the case of `CCOC(=O)c1c[nH]c2c(Sc3ccccc3)nccc2c1=O`, the GI50 in [1] was 92.7 µM (inactive); in experiment [2] it was > 100 µM (inactive); in experiment [3], > 100 µM (inactive); in experiment [4], 53.1 µM (inactive); in experiment [5] it was 73.6 µM (inactive); in experiment [6], 39.6 µM (inactive). Moreover, the GI50 was > 100 µM (inactive) in experiment [7]; > 100 µM (inactive) in experiment [8]; 18.3 µM (inactive) in experiment [9]; > 100 µM (inactive) in experiment [10]; 21.7 µM (inactive) in [11]; > 100 µM (inactive) in experiment [18]. The GI50 in [12] was 27.5 µM (inactive); in experiment [13] it was 44.4 µM (inactive); in [14], > 100 µM (inactive); in [15], 32.4 µM (inactive); in experiment [16], more than 100 µM; in experiment [19] it was 71.1 µM (inactive).
On to `Cc1cc(O)c2c(c1O)C(=O)c1cccc(O)c1C2=O` [ISLANDICIN], for which the GI50 in [1], in experiment [2], in [3], in [4], in experiment [5] and in experiment [6] was > 100 µM (inactive) throughout. Further, the GI50 in experiment [7], in experiment [8], in [9], in experiment [17], in [10] and in [11] was > 100 µM (inactive) in each case. For the same molecule, the GI50 in experiment [18] is > 100 µM (inactive); in experiment [12], 60.8 µM (inactive); in experiment [13], > 100 µM (inactive); in [14] it was > 100 µM (inactive); in [15], > 100 µM (inactive); in experiment [16], more than 100 µM. Moreover, in experiment [19], the GI50 is 43.1 µM (inactive).
